One compound from PMC7997574, “Lead Optimization of Benzoxazolone Carboxamides as Orally Bioavailable and CNS Penetrant Acid Ceramidase Inhibitors” (Journal of Medicinal Chemistry, 2020) can be followed below.

Molecules are shown by their SMILES. Converted amounts (≈) assume the structure as drawn.

The nature of data set [1]: Aqueous kinetic solubility assay. It counts as physicochemical. As to conditions: PBS, pH 7.4. The procedure, abridged: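 Kinetic solubility from 10 mM MeCN stock spiked into PBS pH 7.4 at 250 μM target, shaken 1 h at 25 °C, then centrifuged. Dissolved compound in supernatant quantified by UPLC/MS with UV at 215 nm; mean of ≥2 experiments.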
In data set [2] the target is T1, human fatty acid amide hydrolyase (FAAH) (Homo sapiens, UniProt O00519).
T1 construct: expressed in transfected cells
T1 sequence (O00519 1-579): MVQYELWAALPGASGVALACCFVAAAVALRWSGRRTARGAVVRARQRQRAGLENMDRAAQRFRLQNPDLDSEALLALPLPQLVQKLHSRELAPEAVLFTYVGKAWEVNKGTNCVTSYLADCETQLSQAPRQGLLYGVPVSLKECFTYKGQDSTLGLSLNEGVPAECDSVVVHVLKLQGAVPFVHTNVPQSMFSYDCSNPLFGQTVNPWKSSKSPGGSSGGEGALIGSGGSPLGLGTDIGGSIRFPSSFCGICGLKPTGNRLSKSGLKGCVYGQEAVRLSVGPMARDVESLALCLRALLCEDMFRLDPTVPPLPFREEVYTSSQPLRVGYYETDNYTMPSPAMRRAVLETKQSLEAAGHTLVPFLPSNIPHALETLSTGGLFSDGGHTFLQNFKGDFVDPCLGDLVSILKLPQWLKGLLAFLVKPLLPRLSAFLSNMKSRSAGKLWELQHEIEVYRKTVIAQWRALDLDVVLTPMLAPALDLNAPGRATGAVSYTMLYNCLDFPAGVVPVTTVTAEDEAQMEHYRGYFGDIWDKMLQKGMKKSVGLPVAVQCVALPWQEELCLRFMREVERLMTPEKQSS
Kind of data set: Fluorogenic hFAAH assay. It counts as biochemical. How it is done:
hFAAH was obtained from a HEK-293 FAAH-1 overexpressing stable cell line. Cells were grown in Dulbecco’s modified Eagle medium (DMEM) containing 10% FBS, 1% penicillin/streptomycin, 1% glutamine, 1 mM sodium pyruvate, and 500 μg mL^–1 G418. Cells were harvested, and pellets were stored at −80 °C until membrane-enriched lysate preparation. The cell pellet was resuspended in 20 mM Tris HCl (pH 7.4, 0.32 M sucrose), sonicated, and centrifuged at 1000 × g (10 min, 4 °C). The collected supernatant was centrifuged at 12000 × g for 10 min at 4 °C, and the supernatants were further centrifuged at 100000 × g for 1 h at 4 °C. Membrane pellets were resuspended in PBS, protein concentration was measured, and samples were aliquoted and stored at −80 °C until use.
The fluorescence assay to measure FAAH activity was performed in 96-well black plates (Black OptiPlate-96F; PerkinElmer, Massachusetts, USA): 2.5 μg of hFAAH membrane preparation was preincubated for 50 min at 37 °C in 190 μL of assay buffer (50 mM Tris HCl pH 7.4, 0.05% fatty acid free BSA), with 5 μL of inhibitor or 5 μL of DMSO to measure FAAH total activity. […] The reaction was carried out for 45 min at 37 °C, and fluorescence was measured with an EnVision 2014 Multilabel Reader (PerkinElmer, Massachusetts, USA) (excitation wavelength 355 nm/emission wavelength 460 nm). […]

On to `CC(C)CNC(=O)n1c(=O)oc2cc(C3CCN(C)CC3)ccc21` [22m, N-Isobutyl-6-(1-methyl-4-piperidyl)-2-oxo-1,3-benzoxazole-3-carboxamide], for which, in data set [1], the solubility at 1 h was 240 µM (≈ 79.5 µg/mL). The same compound had an IC50 in data set [2] of 70 nM.
